# Assays:
# Assay in all cases: cells
# DU-4475 = type: functional, cell-based, Homo sapiens
# Description: SANGER: Inhibition of human DU-4475 cell growth in a cell viability assay.
# U-266 = type: functional, cell-based, Homo sapiens
# Description: SANGER: Inhibition of human U-266 cell growth in a cell viability assay.
# TGBC1TKB = type: functional, cell-based, Homo sapiens;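 further: growth inhibition of TGBC1TKB cells, read out by a cell viability assay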
# Description: SANGER: Inhibition of human TGBC1TKB cell growth in a cell viability assay.
# A3-KAW = type: functional, cell-based, Homo sapiens;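 further: growth inhibition of human A3-KAW cells, read out with a cell viability assay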
# Description: SANGER: Inhibition of human A3-KAW cell growth in a cell viability assay.
# Ramos-2G6-4C10 = type: functional, cell-based, Homo sapiens;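 further: growth inhibition of the cell line, measured by a cell viability read-out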
# Description: SANGER: Inhibition of human Ramos-2G6-4C10 cell growth in a cell viability assay.
# KG-1 = type: functional, cell-based, Homo sapiens;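 further: growth inhibition of KG-1 cells, read out by a cell viability assay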
# Description: SANGER: Inhibition of human KG-1 cell growth in a cell viability assay.
# OVCAR-4 = type: functional, cell-based, Homo sapiens;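 further: growth inhibition of human OVCAR-4 cells, measured with a cell viability assay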
# Description: SANGER: Inhibition of human OVCAR-4 cell growth in a cell viability assay.
# OCI-AML2 = type: functional, cell-based, Homo sapiens;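 further: growth inhibition of OCI-AML2 cells, read out with a cell viability assay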
# Description: SANGER: Inhibition of human OCI-AML2 cell growth in a cell viability assay.
# NCI-H510A = type: functional, cell-based, Homo sapiens;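 further: growth inhibition of NCI-H510A cells, read out with a cell viability assay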
# Description: SANGER: Inhibition of human NCI-H510A cell growth in a cell viability assay.
# NCI-H1650 = type: functional, cell-based, Homo sapiens;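 further: growth inhibition of human NCI-H1650 cells measured by a cell viability assay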
# Description: SANGER: Inhibition of human NCI-H1650 cell growth in a cell viability assay.
# DEL = type: functional, cell-based, Homo sapiens;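 further: growth inhibition of the human DEL cell line, read out with a cell viability assay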
# Description: SANGER: Inhibition of human DEL cell growth in a cell viability assay.
# BB30-HNC = type: functional, cell-based, Homo sapiens;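 further: growth inhibition of the cultured cell line, read out by a cell viability assay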
# Description: SANGER: Inhibition of human BB30-HNC cell growth in a cell viability assay.
# IA-LM = type: functional, cell-based, Homo sapiens;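 further: cell viability assay measuring growth inhibition of human IA-LM cells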
# Description: SANGER: Inhibition of human IA-LM cell growth in a cell viability assay.
# GI-1 = type: functional, cell-based, Homo sapiens;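 further: growth inhibition of human GI-1 cells, measured with a cell viability readout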
# Description: SANGER: Inhibition of human GI-1 cell growth in a cell viability assay.
# KINGS-1 = type: functional, cell-based, Homo sapiens;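 further: cell viability assay measuring suppression of KINGS-1 cell growth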
# Description: SANGER: Inhibition of human KINGS-1 cell growth in a cell viability assay.
# GCIY = type: functional, cell-based, Homo sapiens;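 further: growth inhibition of the human GCIY cell line, read out by a cell viability assay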
# Description: SANGER: Inhibition of human GCIY cell growth in a cell viability assay.
# NH-12 = type: functional, cell-based, Homo sapiens;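 further: growth inhibition of NH-12 cells, read out with a cell viability assay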
# Description: SANGER: Inhibition of human NH-12 cell growth in a cell viability assay.
# MLMA = type: functional, cell-based, Homo sapiens;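 further: growth inhibition of MLMA cells (human), determined through a cell viability readout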
# Description: SANGER: Inhibition of human MLMA cell growth in a cell viability assay.
# GB-1 = type: functional, cell-based, Homo sapiens;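 further: growth of GB-1 cells judged by a viability assay, IC50 marks the concentration inhibiting growth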
# Description: SANGER: Inhibition of human GB-1 cell growth in a cell viability assay.
# QIMR-WIL = type: functional, cell-based, Homo sapiens;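 further: growth inhibition of QIMR-WIL cells, read out with a cell viability assay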
# Description: SANGER: Inhibition of human QIMR-WIL cell growth in a cell viability assay.
# NCI-H82 = type: functional, cell-based, Homo sapiens;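 further: growth inhibition of NCI-H82 cells, measured with a cell viability readout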
# Description: SANGER: Inhibition of human NCI-H82 cell growth in a cell viability assay.
# SK-MEL-2 = type: functional, cell-based, Homo sapiens;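 further: growth inhibition of human SK-MEL-2 cells measured with a cell viability assay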
# Description: SANGER: Inhibition of human SK-MEL-2 cell growth in a cell viability assay.
# LOX IMVI = type: functional, cell-based, Homo sapiens
# Description: SANGER: Inhibition of human LOXIMVI cell growth in a cell viability assay.
# no-10 = type: functional, cell-based, Homo sapiens;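 further: growth inhibition of no-10 cells, read out with a cell viability assay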
# Description: SANGER: Inhibition of human no-10 cell growth in a cell viability assay.
# NCI-H1299 = type: functional, cell-based, Homo sapiens;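 further: growth inhibition of human NCI-H1299 cells, read out by a cell viability assay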
# Description: SANGER: Inhibition of human NCI-H1299 cell growth in a cell viability assay.
# DMS-114 = type: functional, cell-based, Homo sapiens
# SBC-1 = type: functional, cell-based, Homo sapiens;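 further: cell viability assay measuring growth inhibition of the SBC-1 cell line, IC50 being the concentration that halves growth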
# Description: SANGER: Inhibition of human SBC-1 cell growth in a cell viability assay.
# TE-1 = type: functional, cell-based, Homo sapiens;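 further: growth inhibition of the human TE-1 cell line, read out with a cell viability assay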
# Description: SANGER: Inhibition of human TE-1 cell growth in a cell viability assay.
# UACC-257 = type: functional, cell-based, Homo sapiens
# Description: SANGER: Inhibition of human UACC-257 cell growth in a cell viability assay.
# CW-2 = type: functional, cell-based, Homo sapiens;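 further: growth inhibition of CW-2 cells, read out by a cell viability assay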
# Description: SANGER: Inhibition of human CW-2 cell growth in a cell viability assay.
# GR-ST = type: functional, cell-based, Homo sapiens
# Description: SANGER: Inhibition of human GR-ST cell growth in a cell viability assay.
# SK-NEP-1 = type: functional, cell-based, Homo sapiens;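 further: growth inhibition of human SK-NEP-1 cells, read out by a cell viability assay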
# Description: SANGER: Inhibition of human SK-NEP-1 cell growth in a cell viability assay.
# KARPAS-45 = type: functional, cell-based, Homo sapiens;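 further: inhibition of cell line growth, read out through a viability assay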
# Description: SANGER: Inhibition of human KARPAS-45 cell growth in a cell viability assay.
# A498 = type: functional, cell-based, Homo sapiens;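 further: growth inhibition of human A498 cells, read out with a cell viability assay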
# Description: SANGER: Inhibition of human A498 cell growth in a cell viability assay.
# L-428 = type: functional, cell-based, Homo sapiens
# Description: SANGER: Inhibition of human L-428 cell growth in a cell viability assay.
# NB13 = type: functional, cell-based, Homo sapiens;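 further: cell viability readout measuring growth inhibition of human NB13 cells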
# Description: SANGER: Inhibition of human NB13 cell growth in a cell viability assay.
# Lu-65 = type: functional, cell-based, Homo sapiens;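 further: growth inhibition of Lu-65 cancer cells, read out by a cell viability assay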
# Description: SANGER: Inhibition of human LU-65 cell growth in a cell viability assay.
# MZ1-PC = type: functional, cell-based, Homo sapiens;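 further: cell viability assay measuring growth inhibition of human MZ1-PC cells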
# Description: SANGER: Inhibition of human MZ1-PC cell growth in a cell viability assay.
# EW-1 = type: functional, cell-based, Homo sapiens
# Description: SANGER: Inhibition of human EW-1 cell growth in a cell viability assay.
# KP-N-YS = type: functional, cell-based, Homo sapiens;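 further: cell viability assay measuring inhibition of cell line growth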
# Description: SANGER: Inhibition of human KP-N-YS cell growth in a cell viability assay.
# DSH1 = type: functional, cell-based, Homo sapiens;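 further: growth inhibition of human DSH1 cells, measured with a cell viability readout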
# Description: SANGER: Inhibition of human DSH1 cell growth in a cell viability assay.
# MN-60 = type: functional, cell-based, Homo sapiens;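 further: growth inhibition of the MN-60 cell line, determined with a cell viability assay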
# Description: SANGER: Inhibition of human MN-60 cell growth in a cell viability assay.
# NCI-H209 = type: functional, cell-based, Homo sapiens;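 further: growth inhibition of human NCI-H209 cells, measured by a cell viability assay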
# Description: SANGER: Inhibition of human NCI-H209 cell growth in a cell viability assay.
# SF-539 = type: functional, cell-based, Homo sapiens;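 further: Read-out is a cell viability assay, with IC50 reflecting inhibition of cell growth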
# Description: SANGER: Inhibition of human SF539 cell growth in a cell viability assay.
# GOTO = type: functional, cell-based, Homo sapiens;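 further: growth inhibition of GOTO cells, read out by a cell viability assay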
# Description: SANGER: Inhibition of human GOTO cell growth in a cell viability assay.
# HCE-T = type: functional, cell-based, Homo sapiens;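 further: cell viability assay read-out, reporting inhibition of HCE-T cell growth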
# Description: SANGER: Inhibition of human HCE-T cell growth in a cell viability assay.
# EW-13 = type: functional, cell-based, Homo sapiens;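 further: growth inhibition of EW-13 cells, read out with a cell viability assay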
# Description: SANGER: Inhibition of human EW-13 cell growth in a cell viability assay.
# SHP77 = type: functional, cell-based, Homo sapiens, SHP-77;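 further: growth inhibition of human SHP-77 cells measured by a cell viability assay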
# Description: SANGER: Inhibition of human SHP-77 cell growth in a cell viability assay.
# LAMA-84 = type: functional, cell-based, Homo sapiens;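 further: growth inhibition of LAMA-84 cells, read out with a cell viability assay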
# Description: SANGER: Inhibition of human LAMA-84 cell growth in a cell viability assay.
molecule,measurement,setting,value
CO[C@H]1C[C@@H]2CC[C@@H](C)[C@@](O)(O2)C(=O)C(=O)N2CCCC[C@H]2C(=O)O[C@H]([C@H](C)C[C@@H]2CC[C@@H](OC(=O)C(C)(CO)CO)[C@H](OC)C2)CC(=O)[C@H](C)/C=C(\C)[C@@H](O)[C@@H](OC)C(=O)[C@H](C)C[C@H](C)/C=C/C=C/C=C/1C [TEMSIROLIMUS],IC50,"DU-4475; Homo sapiens, DU-4475",0.0117 µM
same,IC50,"U-266; Homo sapiens, U-266",0.151 µM
same,IC50,"TGBC1TKB; Homo sapiens, TGBC1TKB",0.137 µM
same,IC50,"A3-KAW; Homo sapiens, A3-KAW",0.0104 µM
same,IC50,"Ramos-2G6-4C10; Homo sapiens, Ramos-2G6-4C10",0.000342 µM
same,IC50,"KG-1; Homo sapiens, KG-1",0.0129 µM
same,IC50,"OVCAR-4; Homo sapiens, OVCAR-4",> 0.2 µM
same,IC50,"OCI-AML2; Homo sapiens, OCI-AML2",> 0.2 µM
same,IC50,"NCI-H510A; Homo sapiens, NCI-H510A",> 0.2 µM
same,IC50,"NCI-H1650; Homo sapiens, NCI-H1650",> 0.2 µM
same,IC50,"DEL; Homo sapiens, DEL",0.00546 µM
same,IC50,"BB30-HNC; Homo sapiens, BB30-HNC",> 0.2 µM
same,IC50,"IA-LM; Homo sapiens, IA-LM",> 0.2 µM
same,IC50,"GI-1; Homo sapiens, GI-1",0.107 µM
same,IC50,"KINGS-1; Homo sapiens, KINGS-1",> 0.2 µM
same,IC50,"GCIY; Homo sapiens, GCIY",> 0.2 µM
same,IC50,"NH-12; Homo sapiens, NH-12",> 0.2 µM
same,IC50,"MLMA; Homo sapiens, MLMA",0.00331 µM
same,IC50,"GB-1; Homo sapiens, GB-1",> 0.2 µM
same,IC50,"QIMR-WIL; Homo sapiens, QIMR-WIL",0.00571 µM
same,IC50,"NCI-H82; Homo sapiens, NCI-H82",0.0288 µM
same,IC50,"SK-MEL-2; Homo sapiens, SK-MEL-2",> 0.2 µM
same,IC50,"LOX IMVI; Homo sapiens, LOX IMVI",0.12 µM
same,IC50,no-10; Homo sapiens,> 0.2 µM
same,IC50,"NCI-H1299; Homo sapiens, NCI-H1299",0.186 µM
same,IC50,"DMS-114; Homo sapiens, DMS-114",0.119 µM
same,IC50,"SBC-1; Homo sapiens, SBC-1",0.000444 µM
same,IC50,"TE-1; Homo sapiens, TE-1",> 0.2 µM
same,IC50,"UACC-257; Homo sapiens, UACC-257",> 0.2 µM
same,IC50,"CW-2; Homo sapiens, CW-2",> 0.2 µM
same,IC50,"GR-ST; Homo sapiens, GR-ST",0.0333 µM
same,IC50,"SK-NEP-1; Homo sapiens, SK-NEP-1",0.00149 µM
same,IC50,"KARPAS-45; Homo sapiens, KARPAS-45",0.0513 µM
same,IC50,"A498; Homo sapiens, A498",> 0.2 µM
same,IC50,"L-428; Homo sapiens, L-428",> 0.2 µM
same,IC50,"NB13; Homo sapiens, NB13",> 0.2 µM
same,IC50,"Lu-65; Homo sapiens, Lu-65",> 0.2 µM
same,IC50,"MZ1-PC; Homo sapiens, MZ1-PC",> 0.2 µM
same,IC50,"EW-1; Homo sapiens, EW-1",> 0.2 µM
same,IC50,"KP-N-YS; Homo sapiens, KP-N-YS",> 0.2 µM
same,IC50,"DSH1; Homo sapiens, DSH1",> 0.2 µM
same,IC50,"MN-60; Homo sapiens, MN-60",0.0193 µM
same,IC50,"NCI-H209; Homo sapiens, NCI-H209",0.153 µM
same,IC50,"SF-539; Homo sapiens, SF-539",0.121 µM
same,IC50,"GOTO; Homo sapiens, GOTO",> 0.2 µM
same,IC50,"HCE-T; Homo sapiens, HCE-T",0.0492 µM
same,IC50,"EW-13; Homo sapiens, EW-13",0.0145 µM
same,IC50,"SHP77; Homo sapiens, SHP77",> 0.2 µM
same,IC50,"LAMA-84; Homo sapiens, LAMA-84",0.00403 µM
Nc1cccc2c1CN(C1CCC(=O)NC1=O)C2=O (configuration not stated) [LENALIDOMIDE],IC50,"DU-4475; Homo sapiens, DU-4475",> 5 µM
same,IC50,"U-266; Homo sapiens, U-266",> 5 µM
same,IC50,"TGBC1TKB; Homo sapiens, TGBC1TKB",> 5 µM
same,IC50,"A3-KAW; Homo sapiens, A3-KAW",> 5 µM
same,IC50,"Ramos-2G6-4C10; Homo sapiens, Ramos-2G6-4C10",> 5 µM
same,IC50,"KG-1; Homo sapiens, KG-1",> 5 µM
same,IC50,"OVCAR-4; Homo sapiens, OVCAR-4",> 5 µM
same,IC50,"OCI-AML2; Homo sapiens, OCI-AML2",> 5 µM
same,IC50,"NCI-H510A; Homo sapiens, NCI-H510A",> 5 µM
same,IC50,"NCI-H1650; Homo sapiens, NCI-H1650",> 5 µM
same,IC50,"DEL; Homo sapiens, DEL",> 5 µM
same,IC50,"BB30-HNC; Homo sapiens, BB30-HNC",> 5 µM
same,IC50,"IA-LM; Homo sapiens, IA-LM",> 5 µM
same,IC50,"GI-1; Homo sapiens, GI-1",> 5 µM
same,IC50,"KINGS-1; Homo sapiens, KINGS-1",> 5 µM
same,IC50,"GCIY; Homo sapiens, GCIY",> 5 µM
same,IC50,"NH-12; Homo sapiens, NH-12",> 5 µM
same,IC50,"MLMA; Homo sapiens, MLMA",> 5 µM
same,IC50,"GB-1; Homo sapiens, GB-1",> 5 µM
same,IC50,"QIMR-WIL; Homo sapiens, QIMR-WIL",> 5 µM
same,IC50,"NCI-H82; Homo sapiens, NCI-H82",> 5 µM
same,IC50,"SK-MEL-2; Homo sapiens, SK-MEL-2",> 5 µM
same,IC50,"LOX IMVI; Homo sapiens, LOX IMVI",> 5 µM
same,IC50,no-10; Homo sapiens,> 5 µM
same,IC50,"NCI-H1299; Homo sapiens, NCI-H1299",> 5 µM
same,IC50,"DMS-114; Homo sapiens, DMS-114",> 5 µM
same,IC50,"SBC-1; Homo sapiens, SBC-1",> 5 µM
same,IC50,"TE-1; Homo sapiens, TE-1",> 5 µM
same,IC50,"UACC-257; Homo sapiens, UACC-257",> 5 µM
same,IC50,"CW-2; Homo sapiens, CW-2",> 5 µM
same,IC50,"GR-ST; Homo sapiens, GR-ST",> 5 µM
same,IC50,"SK-NEP-1; Homo sapiens, SK-NEP-1",> 5 µM
same,IC50,"KARPAS-45; Homo sapiens, KARPAS-45",> 5 µM
same,IC50,"A498; Homo sapiens, A498",> 5 µM
same,IC50,"L-428; Homo sapiens, L-428",> 5 µM
same,IC50,"NB13; Homo sapiens, NB13",> 5 µM
same,IC50,"Lu-65; Homo sapiens, Lu-65",> 5 µM
same,IC50,"MZ1-PC; Homo sapiens, MZ1-PC",> 5 µM
same,IC50,"EW-1; Homo sapiens, EW-1",> 5 µM
same,IC50,"KP-N-YS; Homo sapiens, KP-N-YS",> 5 µM
same,IC50,"DSH1; Homo sapiens, DSH1",> 5 µM
same,IC50,"MN-60; Homo sapiens, MN-60",> 5 µM
same,IC50,"NCI-H209; Homo sapiens, NCI-H209",> 5 µM
same,IC50,"SF-539; Homo sapiens, SF-539",> 5 µM
same,IC50,"GOTO; Homo sapiens, GOTO",> 5 µM
same,IC50,"HCE-T; Homo sapiens, HCE-T",> 5 µM
same,IC50,"EW-13; Homo sapiens, EW-13",> 5 µM
same,IC50,"SHP77; Homo sapiens, SHP77",> 5 µM
same,IC50,"LAMA-84; Homo sapiens, LAMA-84",> 5 µM
CISPLATIN,IC50,DU-4475; du-4475,111 µM
same,IC50,U-266; u-266,154 µM
same,IC50,TGBC1TKB; tgbc1tkb,82.6 µM
same,IC50,A3-KAW; a3-kaw,164 µM
same,IC50,Ramos-2G6-4C10; ramos-2g6-4c10,26.5 µM
same,IC50,KG-1; kg-1,3.63 µM
same,IC50,OVCAR-4; ovcar-4,22.3 µM
same,IC50,OCI-AML2; oci-aml2,15.3 µM
same,IC50,NCI-H510A; nci-h510a,3.1 µM
same,IC50,NCI-H1650; nci-h1650,19 µM
same,IC50,DEL; del,3.67 µM
same,IC50,BB30-HNC; bb30-hnc,24.5 µM
same,IC50,IA-LM; ia-lm,23.1 µM
same,IC50,GI-1; gi-1,2.06 µM
same,IC50,KINGS-1; kings-1,42.8 µM
same,IC50,GCIY; gciy,18.5 µM
same,IC50,NH-12; nh-12,13.2 µM
same,IC50,MLMA; mlma,19.2 µM
same,IC50,GB-1; gb-1,1.9 µM
same,IC50,QIMR-WIL; qimr-wil,29.3 µM
same,IC50,NCI-H82; nci-h82,74.9 µM
same,IC50,SK-MEL-2; sk-mel-2,226 µM
same,IC50,LOX IMVI; lox imvi,13.3 µM
same,IC50,no-10,77.8 µM
same,IC50,NCI-H1299; nci-h1299,26.8 µM
same,IC50,DMS-114; dms-114,19.6 µM
same,IC50,SBC-1; sbc-1,141 µM
same,IC50,TE-1; te-1,38.5 µM
same,IC50,UACC-257; uacc-257,108 µM
same,IC50,CW-2; cw-2,24.5 µM
same,IC50,GR-ST; gr-st,7.5 µM
same,IC50,SK-NEP-1; sk-nep-1,7.18 µM
same,IC50,KARPAS-45; karpas-45,361 µM
same,IC50,A498; a498,19.6 µM
same,IC50,L-428; l-428,18.9 µM
same,IC50,NB13; nb13,40.1 µM
same,IC50,Lu-65; lu-65,559 µM
same,IC50,MZ1-PC; mz1-pc,29.9 µM
same,IC50,EW-1; ew-1,8.48 µM
same,IC50,KP-N-YS; kp-n-ys,811 µM
same,IC50,DSH1; dsh1,145 µM
same,IC50,MN-60; mn-60,58.4 µM
same,IC50,NCI-H209; nci-h209,0.537 µM
same,IC50,SF-539; sf-539,3.53 µM
same,IC50,GOTO; goto,3.09 µM
same,IC50,HCE-T; hce-t,7.9 µM
same,IC50,EW-13; ew-13,4.17 µM
same,IC50,SHP77; shp-77,602 µM
same,IC50,LAMA-84; lama-84,10.8 µM

# From ChEMBL document CHEMBL1201861, “Genomics of Drug Sensitity in Cancer screening data, Wellcome Trust Sanger Institute”
